Reference: patent publication US8263610B2, “Substituted imidazolyl-5,6-dihydrobenzo[N]isoquinoline compounds” (ArQule, Inc., priority 2008, dated 2012)

Experiments:
FGFR2(N549H) = target: T1, FGFR2(N549H) (Homo sapiens, UniProt P21802, N549H); experiment: fluorescent ELISA assay for inhibitors of FGFR2 kinase; assay type: biochemical; conditions: 37 μM Pyk2 substrate, 12.5 μM ATP, 0.5 μM FGFR2 enzyme, 60 minutes
T1 construct: purchased Millipore 14-742
Protocol: The enzymatic assays described herein are conducted according to the following procedures from commercially available reagents. In one, non limiting, example, a fluorescent ELISA assay is used to identify and characterize inhibitors of FGFR2 kinase as described herein. This heterogeneous assay utilizes a biotinylated peptide with a tyrosine motif as a substrate and an anti-phospho-tyrosine antibody to measure phosphorylation of the substrate. The reaction is initiated by adding the test compound, 37 μM Pyk2 substrate (Midwest Biotech, Cat. #MBT2383), 12.5 μM ATP (Roche, Cat. #11 140 965 001) and 0.5 μM FGFR2 enzyme (Millipore, Cat. #14-742) sequentially to a non-binding polypropylene V-well plate. All reagents are in an assay buffer consisting of: 50 mM Tris-HCL, 0.02 mg/ml BSA, 10 mM MgCl2, 0.1 mM Na3VO4, 1 mM EGTA, 75 μM ATP, 0.01% NP-40, 2 mM DTT and 10% glycerol. The reaction is incubated for 60 minutes. As the reaction proceeds, FGFR2 phosphorylates tyrosines in the peptide. The reaction mixture is then moved to a blocked streptavidin-coated Nunc Maxisorb plate (coated with 100 ng streptavidin from Pierce (Cat. #15-124) per well), allowing for the capture of the biotinylated peptide. Peptides are captured for 30 minutes at room temperature, the phosphorylation of peptides continues during this phase. The reaction is stopped by washing the streptavidin-coated plate 6 times with TBST. Phosphorylated peptide is detected by adding anti-phospho-tyrosine antibody (Cell Signaling, Cat. #9411, diluted 1:3000) to the streptavidin-coated plate. Unbound anti-phospho-tyrosine antibody is removed by washing the streptavidin-coated plate 6 times with TBST. Secondary detection is performed using alkaline phosphatase tagged goat anti-mouse antibody (Pierce, Cat. #31320, diluted 1:4000) for one hour. Unbound secondary antibody is removed by washing the streptavidin-coated plate 6 times with TBST. The fluorescent readout is initiated by adding to the streptavidin-coated plate Promega Attophos substrate (Promega, Cat. #S1000, dilution=6 mg/10 ml), which, when dephosphorylated by alkaline phosphatase, emits a fluorescent signal of 595 nm in wavelength when excited by a signal of 400 nm in wavelength. The reading of the 595 nm signal is done on the Perkin Elmer Envision system. Compounds which prevent FGFR2 from phosphorylating the peptide result in a lower fluorescent signal. The 595 nm fluorescent signal is directly proportional to the activity of FGFR2. Thus, the inhibition of FGFR2 by compounds is monitored by the decrease in the 595 nm fluorescent signal.

MDA-MB-231 cells = experiment: MTS assay, inhibition of cell growth; assay type: cell-based; conditions: Homo sapiens, compound at 10 μM, 72 hours
How it was run: (§1)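 Cells seeded at 3000/well in DMEM with 10% FBS, grown 18 h at 37 °C, then exposed to compounds for 72 h. Growth read by MTS/PMS reduction (4 h) as formazan absorbance at 492 nm, reflecting dehydrogenase activity of metabolically active cells.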

PACA-2 cells = experiment: MTS assay, inhibition of cell growth; assay type: cell-based; conditions: compound at 10 μM, 72 hours
How it was run: as §1

Kato III cells = experiment: MTS assay, inhibition of cell growth; assay type: cell-based; conditions: Homo sapiens, compound at 10 μM, 72 hours
How it was run: as §1

NCI-H1299 cells = experiment: MTS assay, inhibition of cell growth; assay type: cell-based; conditions: Homo sapiens, compound at 10 μM, 72 hours
How it was run: as §1

DLD-1 cells = experiment: MTS assay, inhibition of cell growth; assay type: cell-based; conditions: Homo sapiens, compound at 10 μM, 72 hours
How it was run: as §1

T1 sequence (P21802 22-821 N549H): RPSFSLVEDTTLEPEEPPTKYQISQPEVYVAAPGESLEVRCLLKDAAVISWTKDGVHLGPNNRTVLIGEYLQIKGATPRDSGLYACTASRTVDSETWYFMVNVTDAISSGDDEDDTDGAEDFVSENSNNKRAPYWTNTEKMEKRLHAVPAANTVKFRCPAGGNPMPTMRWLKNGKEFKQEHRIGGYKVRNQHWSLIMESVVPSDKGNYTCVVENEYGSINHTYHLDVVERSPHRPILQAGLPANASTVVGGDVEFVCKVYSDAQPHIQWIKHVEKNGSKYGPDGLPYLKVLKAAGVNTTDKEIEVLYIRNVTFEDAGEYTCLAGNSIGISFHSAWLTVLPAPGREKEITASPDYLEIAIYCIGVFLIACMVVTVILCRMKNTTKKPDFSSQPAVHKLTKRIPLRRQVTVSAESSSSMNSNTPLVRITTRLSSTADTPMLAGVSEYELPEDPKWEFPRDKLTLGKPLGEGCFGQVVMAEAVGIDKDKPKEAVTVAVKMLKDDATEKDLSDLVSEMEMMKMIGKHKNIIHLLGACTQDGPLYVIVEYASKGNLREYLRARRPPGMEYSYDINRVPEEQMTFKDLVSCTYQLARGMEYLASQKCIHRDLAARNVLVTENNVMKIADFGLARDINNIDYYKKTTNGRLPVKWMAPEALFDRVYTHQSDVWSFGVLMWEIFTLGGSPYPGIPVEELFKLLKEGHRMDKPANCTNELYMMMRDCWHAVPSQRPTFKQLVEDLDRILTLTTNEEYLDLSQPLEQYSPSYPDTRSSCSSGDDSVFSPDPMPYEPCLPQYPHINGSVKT

| IC50 (FGFR2(N549H)) [µM] | SMILES | inhibition at 10 µM (MDA-MB-231 cells) [%] | inhibition at 10 µM (PACA-2 cells) [%] | inhibition at 10 µM (Kato III cells) [%] | inhibition at 10 µM (NCI-H1299 cells) [%] | inhibition at 10 µM (DLD-1 cells) [%] |
| --- | --- | --- | --- | --- | --- | --- |
| 4.07 | Fc1ccc(C2Cc3cnc4[nH]ncc4c3-c3ccccc32)cc1 (stereo not drawn) [7-(4-fluorophenyl)-6,7-dihydro-3H-benzo[f]pyrazolo[3,4-c]isoquinoline] | – | – | – | – | – |
| 0.224 | c1ccc(C2Cc3cnc4[nH]ncc4c3-c3ccccc32)cc1 (stereo not drawn) [7-phenyl-6,7-dihydro-3H-benzo[f]pyrazolo[3,4-c]isoquinoline] | – | – | – | – | – |
| 6.81 | Cc1cc(C)c2c(c1)-c1c(cnc3[nH]ncc13)CC2 [8,10-dimethyl-6,7-dihydro-3H-benzo[f]pyrazolo[3,4-c]isoquinoline] | – | – | – | – | – |

The next lines start with the compound.

| SMILES | IC50 (FGFR2(N549H)) [µM] | inhibition at 10 µM (MDA-MB-231 cells) [%] | inhibition at 10 µM (PACA-2 cells) [%] | inhibition at 10 µM (Kato III cells) [%] | inhibition at 10 µM (NCI-H1299 cells) [%] | inhibition at 10 µM (DLD-1 cells) [%] |
| --- | --- | --- | --- | --- | --- | --- |
| Clc1ccc(C2Cc3cnc4[nH]ncc4c3-c3ccccc32)c(Cl)c1 (stereo not drawn) [7-(2,4-dichlorophenyl)-6,7-dihydro-3H-benzo[f]pyrazolo[3,4-c]isoquinoline] | 2.51 | – | – | – | – | – |
| Clc1ccc(C2Cc3cnc4[nH]ncc4c3-c3ccccc32)cc1Cl (stereo not drawn) [7-(3,4-dichlorophenyl)-6,7-dihydro-3H-benzo[f]pyrazolo[3,4-c]isoquinoline] | 20.8 | – | – | – | – | – |
| CCOC(=O)CNC(=O)N1CCc2c(cnc3[nH]ncc23)C1 [ethyl N-(3,6,8,9-tetrahydro-7H-pyrazolo[3,4-c][2,7]naphthyridin-7-ylcarbonyl)glycinate] | – | 75 to 100 | 75 to 100 | 75 to 100 | 75 to 100 | 75 to 100 |
| CC(C)(C)OC(=O)NCc1cccc(-c2n[nH]c3ncc4c(c23)CCN(C(=O)OC(C)(C)C)C4)c1 [tert-butyl 1-(3-{[(tert-butoxycarbonyl)amino]methyl}phenyl)-3,6,8,9-tetrahydro-7H-pyrazolo[3,4-c][2,7]naphthyridine--7-carboxylate] | – | 75 to 100 | 75 to 100 | 75 to 100 | 50 to 74 | 75 to 100 |
